In one test the test system is MOLM-14 xenograft model. The experiment in a line: MOLM-14 xenograft efficacy study, combination with venetoclax. It is filed as in vivo, NOD SCID mice. Particulars: venetoclax 25 mg/kg alone, oral once a day, 5 days on/2 days off.
The next test has as its system MOLM-14 cells. Kind of test: Cell viability dose-response matrix of MK256 and venetoclax. It is filed as cell-based. As to conditions: Homo sapiens, MK256 0.0 nM, 72 hrs, read-out: percentage of cell viability. An excerpt: Our earlier experiments showing the clearly increasing expression of BCL-2 in the MOLM-14 cell line led us to ask if there was any combinational effect between MK256 and a BCL-2 inhibitor in MOLM-14 cells. To address this question, we chose venetoclax (ABT-199), an FDA-approved BCL-2 inhibitor for AML and CLL, for the combination study. We treated MOLM-14 cells with MK256 and venetoclax at a series of concentration combinations, measured cell viability, and reported the data in a dose-response matrix (Figure 8). […] We also investigated the apoptotic effect of the combination treatment in the MOLM-14 cell line (Figure 10B).
Figure 10 (A) Dose-response matrix of percentage of cell viability of 10,000 MOLM-14 cells after 72 hrs treatment of MK256 and venetoclax at various concentration combinations. (B) Annexin V staining of 10,000 MOLM-14 cells after 72 hrs treatment of MK256 and venetoclax(ABT199) at various concentration combinations. Status of cells are labeled in the graph at the upper left corner. (C) Tumor growth of MOLM-14 xenograft model. Groups of control; ABT199 (25 mg/kg); ABT199 (25 mg/kg) + MK256 (10 mg/kg); ABT199 25 mg/kg + MK256 (50 mg/kg) were shown in straight line, dotted line, 3 dashed line and 2 dashed line, respectively. ^*** P < 0.001. (D) Body weight percentage of MOLM-14 tumor model. […]

Each structure is given as a SMILES string.

Description for MOLM-14 xenograft model: In an efficacy study of the combination of MK256 and venetoclax in the MOLM-14 tumor model, we compared venetoclax 25 mg/kg, venetoclax 25 mg/kg + MK256 10 mg/kg, and venetoclax 25 mg/kg + MK256 50 mg/kg. Compounds were given orally once a day on a 5 days on/2 days off schedule.
Female NOD SCID mice were purchased from Charles River Laboratories (Wilmington, USA) or bred at the animal facilities of the University of California San Francisco. All animal experiments were carried out under protocols approved by the Institutional Animal Care and Use Committee of the University of California San Francisco. For MOLM-14 model, 200 ul of 1 × 10^6 cells combined with matrigel (v/v, 1:1) were injected subcutaneously in the right flank of NODSCID mice. Tumors were allowed to grow for two weeks to reach a tumor volume about 200 mm^3 before mice were randomly grouped. The animals were treated for three weeks on a 5 days on/2 days off schedule by oral gavage with MK256 (dissolved in saline) alone or in combination with Venetoclax (dissolved in 5% DMSO + 50% PEG 300 + 5% Tween 80 + ddH2O). […] In the combination study, MK256 (10 or 50 mg/kg) and was coadministered with Venetoclax (25 mg/kg) once a day. Tumor volume and body weight were monitored once every 3 days. Tumor volume was calculated as L × W^2/2, where L and W were the length and width of the tumor, respectively.

Regarding `CC1(C)CCC(CN2CCN(c3ccc(C(=O)NS(=O)(=O)c4ccc(NCC5CCOCC5)c([N+](=O)[O-])c4)c(Oc4cnc5[nH]ccc5c4)c3)CC2)=C(c2ccc(Cl)cc2)C1` [Venetoclax, venetoclax, reference compound], the tumor growth inhibition with MOLM-14 xenograft model was determined as 15%. Moreover, the viability at 0.0002 µM with MOLM-14 cells (Venetoclax 0.2 nM) is 65%. For the same compound, the viability at 0.0014 µM in the test with MOLM-14 cells (Venetoclax 1.4 nM) is 45%. Besides, the viability at 0.0041 µM in the test with MOLM-14 cells (Venetoclax 4.1 nM) was determined as 26%. The viability at 0.0123 µM in the test on MOLM-14 cells (Venetoclax 12.3 nM) came out at 12%. For the same compound, the viability at 0.037 µM in the test on MOLM-14 cells (Venetoclax 37 nM) is 8%. Also, the viability at 0.1111 µM with MOLM-14 cells (Venetoclax 111.1 nM) stood at 7%. Moreover, the viability at 0.3333 µM in the test on MOLM-14 cells (Venetoclax 333.3 nM) worked out at 5%. The viability at 1 µM in the test on MOLM-14 cells (Venetoclax 1000 nM) amounted to 2%. For the same compound, the viability at 3 µM with MOLM-14 cells (Venetoclax 3000 nM) came to 0%.

For the origin of these results see paper PMC9629815, “MK256 is a novel CDK8 inhibitor with potent antitumor activity in AML through downregulation of the STAT pathway” (Oncotarget, 2022).
